# Experimental data published in PMC5527824 (Frontiers in bioscience (Scholar edition), 2015).
# Values joined by “and” are separate entries in the source; they are usually repeats but may differ in a detail not shown here. Equal values may be shown once. Read-outs that look alike come from different tables or passages of the source.
# Experiments:
# [1] = tested on: PC12 cells; settings: of ~30 flavonoids tested; cited from earlier work
# [2] = rat, in vivo, po; cited from earlier work
# [3] = tested on: mouse hippocampal HT22 cells; settings: cited from earlier work
# [4] = tested on: 12-LOX; settings: fish gill; cited from earlier work
# [5] = tested on: Akita mice; assay: Ins2^Akita mouse model of type 1 diabetes; format: in vivo; settings: 0.05% in diet for 18 weeks
# [6] = test tube assays; cited from earlier work
# [7] = tested on: aluminum chloride toxicity in mice; settings: oral 15 mg/kg bw; cited from earlier work
# [8] = tested on: APPswe/PS1dE9 double transgenic AD mice; settings: cited from earlier work
# [9] = tested on: APPswe/PS1dE9 double transgenic AD mice; settings: AD mice 12 months of age, 0.05% in food; cited from earlier work
# [10] = tested on: Akita mice; settings: cited from earlier work
# [11] = tested on: monoamine oxidase A; settings: stated as possible mechanism; cited from earlier work
# [12] = target: hERG (Homo sapiens, UniProt Q12809); assay: hERG activity; settings: at concentrations up to 10 μM, the highest concentration tested; unpublished results
# [13] = pharmacokinetics in mice, oral; format: in vivo, mouse; settings: oral 50 mg/kg bw, unpublished results
# [14] = tested on: PC12/Htt^Q103 cells; settings: 10 μM, 24 hr after induction of Httex1-103QP; cited from earlier work
# [15] = tested on: proteasome; settings: cited from earlier work
# [16] = 0.05% in diet for 9 months (~25 mg/kg bw), vs control; cited from earlier work
# [17] = target: COX2 (Human recombinant) (Homo sapiens, UniProt P35354); assay: COX2 inhibition; format: biochemical
# [18] = tested on: BV-2 microglial cell line; settings: BV-2 cells; cited from earlier work
# [19] = rats, intravenous and oral administration; cited from earlier work
# [20] = tested on: NF-κB coactivator CBP/p300; settings: human monocytes; cited from earlier work
# [21] = tested on: liver microsomes; settings: ferrous sulfate/ascorbate; cited from earlier work
# [22] = tested on: R6/2 mouse; settings: R6/2 mice, cited from earlier work
# [23] = tested on: 15-LOX; settings: rabbit reticulocytes; cited from earlier work
# [24] = tested on: ATF4; settings: basal half-life ~10 min; cited from earlier work
# [25] = target: 5-LOX from human peripheral blood mononuclear leukocytes (PBML) (Homo sapiens, UniProt P09917); assay: 5-LOX inhibition; format: biochemical; settings: Fisetin IC50, 5-LOX
# [26] = tested on: scopolamine-induced memory impairment in mice; settings: cited from earlier work
# [27] = tested on: tMCAO in mice; settings: cited from earlier work; for intracellular TNF-α production in macrophages / TNF-α–producing microglia: brain
# [28] = target: cytochrome P450 2C9 (Homo sapiens, UniProt P11712); assay: cytochrome P450 2C9 inhibition; format: in vitro ADME; settings: at concentrations up to 10 μM; unpublished results
# [29] = mouse, intravenous 223 mg/kg bw; cited from earlier work
# [30] = short-term toxicity study in mice; format: in vivo; settings: oral 2000 mg/kg bw, examined for 48 hr, outside laboratory
# [31] = tested on: HT22 cells; settings: cited from earlier work
# [32] = Ames test
# [33] = tested on: Nrf2; settings: basal half-life ~15 min; cited from earlier work
# [34] = tested on: rodent model of depression; settings: oral administration; cited from earlier work
# [35] = target: cytochrome P450 3A4 (Homo sapiens, UniProt P08684); assay: cytochrome P450 3A4 inhibition; format: in vitro ADME; settings: at concentrations up to 10 μM; unpublished results
# [36] = tested on: mouse N9 microglial cells; settings: cited from earlier work
# [37] = target: COX1 (Human platelets) (Homo sapiens, UniProt P23219); assay: COX1 inhibition; format: biochemical
# [38] = tested on: RAW264.7 macrophages; settings: RAW264.7, via increased MKP-1 levels; cited from earlier work
# [39] = tested on: APPswe/PS1dE9 double transgenic AD mice; settings: 0.05% in food, cited from earlier work
# [40] = target: cytochrome P450 2D6 (Homo sapiens, UniProt P10635); assay: cytochrome P450 2D6 inhibition; format: in vitro ADME; settings: at concentrations up to 10 μM; unpublished results
# [41] = tested on: tMCAO in mice; settings: cited from earlier work
# [42] = tested on: rodent model of depression; settings: oral administration; cited from earlier work; remark: listed apart in the source
# [43] = cited from earlier work
# [44] = tested on: Aβ; settings: cell-free assay system; cited from earlier work
# [45] = tested on: 5-LOX; settings: stimulated peritoneal leukocytes; cited from earlier work
# [46] = target: 15-LOX from rabbit reticulocytes (Oryctolagus cuniculus, UniProt P12530); assay: 15-LOX inhibition; settings: Fisetin IC50, 15-LOX
# [47] = cited from earlier work; remark: listed apart in the source
# [48] = tested on: human lung adenocarcinoma cell line H1299; settings: H1299 cells; cited from earlier work
# [49] = tested on: nerve cell; settings: of ~30 flavonoids tested; cited from earlier work
# [50] = tested on: mouse HT22 hippocampal nerve cell line; settings: read-out: EC50, protection from IAA-induced death; HT22 cells; cited from earlier work
# [51] = tested on: APPswe/PS1dE9 double transgenic AD mice; settings: AD mice 12 months of age, 0.05% in food; cited from earlier work; remark: listed apart in the source
# [52] = cited from earlier work; remark: listed apart in the source
# Chain of 5-LOX from human peripheral blood mononuclear leukocytes (PBML) (P09917 whole entry): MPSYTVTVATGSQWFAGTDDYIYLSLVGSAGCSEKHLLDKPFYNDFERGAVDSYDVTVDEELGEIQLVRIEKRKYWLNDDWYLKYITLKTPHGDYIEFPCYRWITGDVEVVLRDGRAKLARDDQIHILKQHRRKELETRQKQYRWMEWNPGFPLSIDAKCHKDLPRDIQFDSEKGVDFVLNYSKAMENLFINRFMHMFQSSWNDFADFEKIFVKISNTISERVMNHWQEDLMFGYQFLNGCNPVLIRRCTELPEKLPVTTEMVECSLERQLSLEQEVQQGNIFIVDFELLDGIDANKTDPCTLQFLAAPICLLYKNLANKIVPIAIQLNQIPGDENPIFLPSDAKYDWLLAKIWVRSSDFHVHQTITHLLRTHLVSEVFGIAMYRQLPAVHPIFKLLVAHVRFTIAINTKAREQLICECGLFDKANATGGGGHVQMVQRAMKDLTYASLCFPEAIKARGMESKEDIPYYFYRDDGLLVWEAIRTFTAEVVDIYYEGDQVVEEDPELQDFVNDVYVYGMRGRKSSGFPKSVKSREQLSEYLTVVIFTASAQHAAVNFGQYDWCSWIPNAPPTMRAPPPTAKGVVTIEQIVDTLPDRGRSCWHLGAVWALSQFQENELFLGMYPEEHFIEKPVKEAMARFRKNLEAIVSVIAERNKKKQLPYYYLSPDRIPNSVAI
# Chain of 15-LOX from rabbit reticulocytes (P12530 whole entry): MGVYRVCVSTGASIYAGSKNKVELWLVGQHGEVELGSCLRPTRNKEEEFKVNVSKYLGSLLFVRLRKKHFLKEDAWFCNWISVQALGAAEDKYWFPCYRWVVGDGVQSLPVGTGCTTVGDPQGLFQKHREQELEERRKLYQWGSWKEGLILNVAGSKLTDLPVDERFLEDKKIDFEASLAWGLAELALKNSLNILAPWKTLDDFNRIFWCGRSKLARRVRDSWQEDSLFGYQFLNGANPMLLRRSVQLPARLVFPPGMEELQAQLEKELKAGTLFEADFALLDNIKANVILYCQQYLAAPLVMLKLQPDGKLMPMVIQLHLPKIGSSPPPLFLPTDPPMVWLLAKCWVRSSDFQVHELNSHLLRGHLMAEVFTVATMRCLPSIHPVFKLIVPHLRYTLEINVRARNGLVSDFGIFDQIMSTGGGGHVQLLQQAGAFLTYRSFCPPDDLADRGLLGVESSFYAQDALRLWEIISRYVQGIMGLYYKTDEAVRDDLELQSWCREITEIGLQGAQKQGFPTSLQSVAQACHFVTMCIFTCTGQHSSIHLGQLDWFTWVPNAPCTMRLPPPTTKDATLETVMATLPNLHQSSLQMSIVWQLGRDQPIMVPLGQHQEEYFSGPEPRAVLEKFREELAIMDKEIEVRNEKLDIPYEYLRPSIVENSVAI
# Chain of COX1 (Human platelets) (P23219 24-599): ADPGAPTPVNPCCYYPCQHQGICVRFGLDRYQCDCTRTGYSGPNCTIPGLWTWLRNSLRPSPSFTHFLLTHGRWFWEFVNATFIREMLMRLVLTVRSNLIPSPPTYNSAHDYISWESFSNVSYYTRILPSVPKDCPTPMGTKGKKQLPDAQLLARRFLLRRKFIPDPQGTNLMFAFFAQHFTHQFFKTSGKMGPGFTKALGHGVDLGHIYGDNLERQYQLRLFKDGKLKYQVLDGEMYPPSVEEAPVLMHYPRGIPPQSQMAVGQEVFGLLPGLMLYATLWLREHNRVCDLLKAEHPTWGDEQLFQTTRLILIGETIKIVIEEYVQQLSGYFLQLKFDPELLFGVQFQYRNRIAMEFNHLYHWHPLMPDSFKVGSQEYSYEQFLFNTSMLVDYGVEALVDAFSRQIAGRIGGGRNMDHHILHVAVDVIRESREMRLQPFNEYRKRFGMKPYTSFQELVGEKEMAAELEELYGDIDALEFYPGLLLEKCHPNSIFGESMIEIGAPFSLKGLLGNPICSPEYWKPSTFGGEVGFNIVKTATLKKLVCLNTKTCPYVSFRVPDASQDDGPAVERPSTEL
# Chain of cytochrome P450 2D6 (P10635 whole entry): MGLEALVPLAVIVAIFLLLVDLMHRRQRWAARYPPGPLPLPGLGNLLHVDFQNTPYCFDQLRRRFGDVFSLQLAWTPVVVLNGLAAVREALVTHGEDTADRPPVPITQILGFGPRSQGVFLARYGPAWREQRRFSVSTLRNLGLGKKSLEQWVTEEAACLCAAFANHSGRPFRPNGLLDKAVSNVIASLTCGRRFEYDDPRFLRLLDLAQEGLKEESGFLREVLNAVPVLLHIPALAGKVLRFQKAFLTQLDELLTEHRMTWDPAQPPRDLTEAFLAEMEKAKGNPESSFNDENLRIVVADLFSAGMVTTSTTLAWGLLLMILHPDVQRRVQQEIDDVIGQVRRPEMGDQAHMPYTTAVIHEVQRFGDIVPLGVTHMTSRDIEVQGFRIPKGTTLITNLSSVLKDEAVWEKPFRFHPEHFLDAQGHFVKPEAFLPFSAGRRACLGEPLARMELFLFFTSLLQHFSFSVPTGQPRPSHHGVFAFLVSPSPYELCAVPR
# Chain of COX2 (Human recombinant) (P35354 18-604): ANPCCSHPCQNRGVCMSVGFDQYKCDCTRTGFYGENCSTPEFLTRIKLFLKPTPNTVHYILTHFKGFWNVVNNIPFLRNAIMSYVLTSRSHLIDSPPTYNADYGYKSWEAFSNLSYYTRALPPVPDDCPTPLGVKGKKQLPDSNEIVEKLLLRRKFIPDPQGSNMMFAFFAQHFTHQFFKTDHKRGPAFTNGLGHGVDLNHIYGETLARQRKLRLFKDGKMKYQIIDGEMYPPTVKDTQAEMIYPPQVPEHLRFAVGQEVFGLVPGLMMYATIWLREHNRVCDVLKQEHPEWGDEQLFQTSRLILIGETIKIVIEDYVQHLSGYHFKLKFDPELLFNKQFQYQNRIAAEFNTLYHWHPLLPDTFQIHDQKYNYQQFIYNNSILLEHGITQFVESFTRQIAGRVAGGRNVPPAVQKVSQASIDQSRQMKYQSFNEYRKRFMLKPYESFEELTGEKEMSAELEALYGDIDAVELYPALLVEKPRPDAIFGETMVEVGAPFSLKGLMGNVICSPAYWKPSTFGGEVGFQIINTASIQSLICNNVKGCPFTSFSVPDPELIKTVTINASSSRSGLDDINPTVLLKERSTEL
# Chain of cytochrome P450 2C9 (P11712 whole entry): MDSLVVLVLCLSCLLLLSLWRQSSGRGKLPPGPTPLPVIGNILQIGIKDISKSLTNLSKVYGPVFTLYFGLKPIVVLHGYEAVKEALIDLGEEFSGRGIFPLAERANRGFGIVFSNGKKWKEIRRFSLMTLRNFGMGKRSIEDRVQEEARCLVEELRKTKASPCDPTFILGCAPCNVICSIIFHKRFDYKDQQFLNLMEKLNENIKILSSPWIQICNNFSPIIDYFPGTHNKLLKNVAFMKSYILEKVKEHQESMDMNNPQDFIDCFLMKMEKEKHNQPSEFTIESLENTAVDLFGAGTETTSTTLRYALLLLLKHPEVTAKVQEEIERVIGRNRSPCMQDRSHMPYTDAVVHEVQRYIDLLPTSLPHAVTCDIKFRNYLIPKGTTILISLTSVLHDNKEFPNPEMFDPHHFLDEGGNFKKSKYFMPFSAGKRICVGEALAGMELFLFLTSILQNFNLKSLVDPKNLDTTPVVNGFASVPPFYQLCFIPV
# Chain of cytochrome P450 3A4 (P08684 whole entry): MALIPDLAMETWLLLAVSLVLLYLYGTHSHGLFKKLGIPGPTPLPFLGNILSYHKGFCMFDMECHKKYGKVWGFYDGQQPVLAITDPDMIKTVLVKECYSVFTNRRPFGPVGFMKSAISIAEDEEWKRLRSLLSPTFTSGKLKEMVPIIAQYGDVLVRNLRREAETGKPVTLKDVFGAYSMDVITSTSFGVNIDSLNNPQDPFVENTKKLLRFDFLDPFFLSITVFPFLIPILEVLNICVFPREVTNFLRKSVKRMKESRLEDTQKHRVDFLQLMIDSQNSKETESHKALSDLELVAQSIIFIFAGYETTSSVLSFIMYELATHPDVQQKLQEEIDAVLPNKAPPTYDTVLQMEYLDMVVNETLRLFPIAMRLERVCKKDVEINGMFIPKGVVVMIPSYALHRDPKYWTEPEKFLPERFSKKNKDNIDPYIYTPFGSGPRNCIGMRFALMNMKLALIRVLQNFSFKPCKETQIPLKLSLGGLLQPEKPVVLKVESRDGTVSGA
structure (smiles),measurement,setting,value
O=c1cc(-c2ccc(O)c(O)c2)oc2cc(O)cc(O)c12 [luteolin],differentiation of PC12 cells (neurotrophic activity),[1],some differentiation-inducing activity
O=c1cc(-c2ccccc2)oc2cc(O)c(O)c(O)c12 [baicalein],levels of free and conjugated flavonoid,[2],≤ 1000 nM
COc1cc(-c2oc3cc(O)cc(O)c3c(=O)c2O)ccc1O [isorhamnetin],differentiation of PC12 cells (neurotrophic activity),[1],some differentiation-inducing activity
"O=c1c(O)c(-c2ccc(O)c(O)c2)oc2cc(O)ccc12 [fisetin, 3,3′,4′,7-tetrahydroxyflavone]",reduction in the ability of fisetin to maintain cellular GSH levels,"[3]; siRNA to ATF4, basal and glutamate-induced oxidative stress conditions",~ 50%
same,effect of Nrf2 reduction on the ability of fisetin to maintain GSH levels,"[3]; siRNA to Nrf2, basal conditions",no effect
same,reduction in the ability of fisetin to maintain GSH,"[3]; siRNA to Nrf2, in the presence of oxidative stress",~ 30%
same,inhibition of 12-LOX activity,[4],effective inhibitor
same,decrease in motor nerve conduction velocity,[5],ameliorated
same,increase in hind paw thermal latency,[5],prevented
same,concentration at which pro-oxidant effects are seen,[6],≥ 50 µM
same,loss of total GSH from cortex and hippocampus,[7],greatly reduce the loss of total GSH
same,"production of PGD2, PGJ2 and 15d-PGD2",[8]; AD mice study,increased production
same,ERK phosphorylation in the hippocampus,[8]; AD mice treated with fisetin,increases in ERK phosphorylation
same,AD-increased production of thromboxanes TXB1 and TXB2,"[8]; AD mice, 0.05% in food",partly prevented
same,astrocyte area and intensity of GFAP staining in hippocampus,"[8]; AD mice, 0.05% in food",largely reversed
same,brain levels of 5-HETE and 12-HETE,[8]; AD mice,significantly reduce
same,Aβ1–40 level in RIPA soluble fraction of hippocampus,"[8]; ELISA, Aβ1–42 not reduced",significantly reduce
same,Aβ plaque loads in brain sections,[8]; fisetin-fed vs control AD mice,No significant differences
same,"escape latency, hidden platform day 2",[9],indistinguishable from that of the wild type mice
same,elevated blood glucose and HbA1c,"[10]; 0.05% in food (25–40 mg/kg bw daily), 6 to 24 weeks",not affected
same,"open field test, distance traveled and time ambulatory (anxiety-related symptoms)",[10]; 0.05% in food,restored to near normal values
same,weight loss,[10]; 0.05% in food,not altered
same,inhibition of monoamine oxidase A,[11],mild inhibition
same,inhibition of hERG activity,[12],no inhibition
same,half-life of free fisetin,[13],very short half-life
same,differentiation of PC12 cells (neurotrophic activity),[1],promoting the differentiation of PC12 cells
same,protection of cells,[14],equal or greater amount of protection
same,proteasome activity,[15],increase proteasome activity
same,body weights,[16],No significant differences
same,IC50,[17],> 10000 nM
same,"LPS-induced nitric oxide production, TNF-α, PGE2 and iNOS/COX2 expression",[18],blocked
same,t1/2 of free fisetin in serum,[19],2.7 min
same,activity of CBP/p300,[20],suppress
same,concentration decreasing lipid peroxidation,[21],1.35 µM
same,median life span,"[22]; 0.05% in food from ~6 weeks of age, control diet 104 days",139 days
same,rotorod performance,"[22]; 0.05% in food, at 9, 11 and 13 weeks (p < 0.01)",improved
same,increase of median life span,"[22]; 0.05% in food, vs control diet",~ 30%
same,inhibition of 15-LOX activity,[23],effective inhibitor
same,increase of ATF4 half-life,[24],~ 2 fold
same,IC50,[25],585 nM and 580 nM
same,loss of total GSH from the cortex,[26]; scopolamine-treated mice,prevent the loss of total GSH
same,rescue of memory deficit induced by scopolamine,[26]; single oral dose of 40 mg/kg bw,as effective as donepezil
same,leukocytes infiltrating the brain,"[27]; 50 mg/kg bw, day 3, mean ± SD, placebo 179,252 ± 23,389","93,045 ± 46,963 cells per ischemic hemisphere"
same,numbers of microglia in the ipsilesional hemisphere,"[27]; 50 mg/kg bw, day 3 after stroke, vs placebo",no significant differences
same,intracellular TNF-α production in macrophages,"[27]; day 3, placebo 24.6%",2.9%
same,TNF-α–producing microglia,"[27]; day 3, placebo 30.4%",17.3%
same,TNF-α–producing microglia,"[27]; day 7, placebo 31.9%",26.8%
same,intracellular TNF-α production in macrophages,"[27]; day 7, placebo 33.8%",13.9%
same,TNF-α production in macrophages and DCs isolated from spleen,"[27]; day 3 and day 7 post ischemia, vs placebo",did not show any differences
same,inhibition of cytochrome P450 2C9 activity,[28],no inhibitory effects
same,t1/2 of free fisetin in serum,[29],3.12 h
same,short-term toxicity,[30],No indications of toxicity
same,extracellular Aβ toxicity,[31],prevents extracellular Aβ toxicity
same,Ames test,[32],negative
same,increase of Nrf2 half-life,[33],~ 2 fold
same,most effective dose at reducing immobility time,[34],20 mg/kg bw
same,inhibition of cytochrome P450 3A4 activity,[35],no inhibitory effects
same,reduction of iNOS expression,"[36]; 10 μM, following LPS stimulation (p<0.001)",91%
same,"IκB, JNK and c-Jun phosphorylation",[36]; LPS-stimulated murine microglia,significantly reduced
same,LPS-induced nitric oxide and TNF-α production,"[36]; N9 cells, vs placebo",significant inhibition
same,IC50,[37],> 10000 nM
same,p38 MAPK and JNK activation,[38],suppresses
same,swim speeds,[39],no effect
same,"MWM probe test, memory (time in platform quadrant)",[39]; AD mice 9 months of age,clear evidence of memory improvement
same,inhibition of cytochrome P450 2D6 activity,[40],no inhibitory effects
same,infarct size,"[41]; 25 mg/kg i.p. 20 min before onset of ischemia, placebo 56 μl",49 µL
same,infarct size,"[41]; 50 mg/kg i.p. 20 min before onset of ischemia, placebo 56 μl",30 µL
same,infarct size,"[41]; 50 mg/kg i.p. three hours after onset of ischemia, placebo 42 μl",27 µL
same,most effective dose at reducing immobility time,[42],20 mg/kg bw
same,Trolox equivalent antioxidant capacity (TEAC) value,[43],~ 3
same,Aβ fibril formation,[44],inhibit Aβ fibril formation
same,inhibition of 5-LOX activity,[45],effective inhibitor
same,IC50,[46],341 nM and 340 nM
same,chelation of iron,[47],efficient chelation
same,NF-κB-dependent reporter gene expression and protein expression,[48],reduced
same,maintenance of GSH levels in the presence of oxidative stress,[49],able to maintain GSH levels
same,EC50,[50],3000 nM
same,time in the open arms (disinhibition),[51],reversed
"COc1cc(-c2oc3cc(O)ccc3c(=O)c2O)ccc1O [geraldol, 3,4′,7-trihydroxy-3′-methoxyflavone]",activity in several biological assays,[52],as active as fisetin
"O=c1c(O)c(-c2ccc(O)c(O)c2)oc2cc(O)cc(O)c12 [quercetin, reference compound]",differentiation of PC12 cells (neurotrophic activity),[1],some differentiation-inducing activity
same,maintenance of GSH levels in the presence of oxidative stress,[49],able to maintain GSH levels
